Values joined by “and” are separate entries in the source; they are usually repeats but may differ in a detail not shown here. Equal entries are not always repeated. Where two headings read alike, the source gives them in different places.
How the values were obtained:
[1] = molecular target: T1, fatty acyl CoA: cholesterol acyl transferase (ACAT) (Rattus norvegicus, UniProt O70536); assay: Inhibition of fatty acyl CoA:cholesterol acyl transferase (ACAT), rat adrenal enzyme; format: biochemical
T1 construct: The supernatant, containing the microsomal fraction, served as the source of the cholesterol-esterifying enzyme; from tissue; host or cells: rat adrenals, supernatant of 1,000 x g centrifugation containing the microsomal fraction
T1 sequence (O70536 1-545): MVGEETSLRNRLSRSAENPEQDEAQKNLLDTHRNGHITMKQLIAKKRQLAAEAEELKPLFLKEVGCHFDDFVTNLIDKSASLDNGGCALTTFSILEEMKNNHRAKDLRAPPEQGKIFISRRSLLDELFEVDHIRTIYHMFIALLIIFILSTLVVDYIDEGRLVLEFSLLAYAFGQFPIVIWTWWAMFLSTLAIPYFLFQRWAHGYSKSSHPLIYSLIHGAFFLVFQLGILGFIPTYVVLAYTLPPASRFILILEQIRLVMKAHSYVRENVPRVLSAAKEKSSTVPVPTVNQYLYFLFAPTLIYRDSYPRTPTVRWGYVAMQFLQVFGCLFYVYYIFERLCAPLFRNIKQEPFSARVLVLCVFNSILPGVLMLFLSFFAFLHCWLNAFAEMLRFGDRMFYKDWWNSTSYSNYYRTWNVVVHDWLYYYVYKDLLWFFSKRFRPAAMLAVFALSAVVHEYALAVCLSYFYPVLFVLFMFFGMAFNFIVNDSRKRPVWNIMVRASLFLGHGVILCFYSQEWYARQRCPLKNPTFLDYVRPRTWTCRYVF
Method in brief: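 Read-out was scintillation counting of [14C]cholesteryl ester, isolated by TLC, after 10 min at 37° C with [14C]oleoyl CoA. Beforehand, compound (final 5.2 μg/ml in single-concentration tests) was preincubated 10 min at 37° C with BSA and rat adrenal microsomal supernatant in pH 7.4 phosphate. Results given as percent inhibition versus control or IC50 over several concentrations.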

[2] = tested on: cholesterol absorption; assay: Inhibition of cholesterol absorption in rats fed 1% cholesterol:0.5% cholic acid diet; format: in vivo, male Sprague-Dawley rats; details: po, 336 h, rat, dose .03% of the diet, 2 weeks
Method in brief: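 Compound was mixed into the diet (0.001-0.03%) of male Sprague-Dawley rats, 150-170 g, on a 1% cholesterol/0.5% cholic acid regimen for 2 weeks. At sacrifice, serum cholesterol (enzymatic) and liver neutral-sterol cholesterol were measured; values given as percent of compound-free control rats.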

[3] = rat adrenal ACAT, final concentration 5.2 μg/ml, read-out: % Inhibition
[4] = read-out: LS (liver sterol), percentage of control values
[5] = read-out: SS (serum sterol), percentage of control values

| SMILES | inhibition at 5.2 µg/mL [1, 3] | response vs control in vivo at 0.03 % [2, 4] | response vs control in vivo at 0.03 % [2, 5] | inhibition at 5.2 µg/mL [1] | % Inhibition ([1]; rat adrenal ACAT, final concentration 5.2 μg/ml) |
| --- | --- | --- | --- | --- | --- |
| CCCCc1ccc(CN(Cc2ccccc2)C(=O)Nc2cc(C)c(C)cc2C)cc1 [1-Benzyl-1-(4-n-butylbenzyl)-3-(2,4,5-trimethylphenyl)urea] | 90.5% | 10% | 50% | – | – |
| CCCCc1ccc(CN(Cc2ccccc2)C(=O)Nc2c(C)cc(C)cc2C)cc1 [1-Benzyl-1-(4-n-butylbenzyl)-3-(2,4,6-trimethylphenyl)urea] | 92.8% | 13% | 53% | – | – |
| CCCCc1ccc(CN(Cc2ccccc2)C(=O)Nc2ccc(C)cc2C)cc1 [1-Benzyl-1-(4-n-butylbenzyl)-3-(2,4-dimethylphenyl)urea] | 91.9% | 20% | 41% | – | – |
| CCCCc1ccc(CN(Cc2ccccc2)C(=O)Nc2ccc(Cl)cc2C)cc1 [1-Benzyl-1-(4-n-butylbenzyl)-3-(2-methyl-4-chlorophenyl)urea] | 94.3% | 21% | 70% | – | – |
| CCCCc1ccc(CN(Cc2ccccc2)C(=O)Nc2ccc(CCCC)cc2)cc1 [1-Benzyl-1-(4-n-butylbenzyl)-3-(4-n-butylphenyl)urea] | 92% | 61% | 53% | – | – |
| CCCCOc1ccc(CN(Cc2ccccc2)C(=O)Nc2cc(Cl)c(Cl)cc2Cl)cc1 [1-Benzyl-1-(4-n-butyloxybenzyl)-3-(2,4,5-trichlorophenyl)urea] | 89% | 65% | 66% | – | – |
| CCCCN(Cc1ccccc1)C(=O)Nc1c(Cl)cc(Cl)cc1Cl [1-Benzyl-1-( -n-butyl)-3-(2,4,6-trichlorophenyl)urea] | 87.8% | 32% | 48% | – | – |
| CCCCN(Cc1ccccc1)C(=O)Nc1c(C)cccc1C [1-Benzyl-1-( -n-butyl)-3-(2,6-dimethylphenyl)urea] | 83.1% | 91% | 68% | – | – |
| CCCCN(Cc1ccccc1)C(=O)Nc1cc(C)cc(C)c1 [1-Benzyl-1-( -n-butyl)-3-(3,5-dimethylphenyl)urea] | 94.2% | 75% | 93% | – | – |
| CCCCN(Cc1ccccc1)C(=O)Nc1ccc(C)cc1C [1-Benzyl-1-(n-butyl)-3-(2,4-dimethylphenyl)urea] | 91.3% | 65% | 70% | – | – |
| O=C(Nc1c(Cl)cc(Cl)cc1Cl)N(Cc1ccccc1)C(Cc1ccccc1)c1ccc(OCc2ccccc2)cc1 (stereo not drawn) [1-Benzyl-1-[2-phenyl-1-(4-benzyloxyphenyl)ethyl]-3-(2,4,6-trichlorophenyl)urea] | 95% | 64% | 95% | – | – |
| Cc1cc(C)c(NC(=O)N(Cc2ccccc2)C(Cc2ccccc2)c2ccc(OCc3ccccc3)cc2)c(C)c1 (stereo not drawn) [1-Benzyl-1-[2-phenyl-1-(4-benzyloxyphenyl)ethyl]-3-(2,4,6-trimethylphenyl)urea] | – | 49% | 60% | 90% | – |
| O=C(Nc1ccc(F)cc1F)N(Cc1ccccc1)C(Cc1ccccc1)c1ccc(OCc2ccccc2)cc1 (stereo not drawn) [1-Benzyl-1-[2-phenyl-1-(4-benzyloxyphenyl)ethyl]-3-(2,4-difluorophenyl)urea] | – | 27% | 48% | – | 70.0% and 91.0% |
| Cc1cc(Cl)ccc1NC(=O)N(Cc1ccccc1)C(Cc1ccccc1)c1ccc(OCc2ccccc2)cc1 (stereo not drawn) [1-Benzyl-1-[2-phenyl-1-(4-benzyloxyphenyl)ethyl]-3-(2-methyl-4-chlorophenyl)urea] | 89.3% | 31% | 50% | – | – |
| CCCCCCCN(Cc1cccs1)C(=O)Nc1cc(C)c(C)cc1C [1-Heptyl-1-(2-thienylmethyl)-3-(2,4,5-trimethylphenyl)urea] | – | 25% | 54% | 90% | – |
| CCCCCCCN(Cc1cccs1)C(=O)Nc1c(Cl)cc(Cl)cc1Cl [1-Heptyl-1-(2-thienylmethyl)-3-(2,4,6-trichlorophenyl)urea] | – | 28% | 56% | 90% | – |
| Cc1ccc(CCN(Cc2cccc(Cl)c2)C(=O)Nc2ccc(C)cc2C)cc1 [1-[2-(4-Methylphenyl)ethyl]-1-(3-chlorobenzyl)-3-(2,4-dimethylphenyl)urea] | 67.6% | 20% | 50% | – | – |
| CCCCOc1ccc(CN(Cc2cccs2)C(=O)Nc2cc(C)c(C)cc2C)cc1 [1-[(4-Butoxyphenyl)methyl]-1-(2-thienylmethyl)-3-(2,4,5-trimethylphenyl)urea] | – | 16% | 41% | 90% | – |
| CCCCc1ccc(CN(CCCCCCCl)C(=O)Nc2cc(C)c(C)cc2C)cc1 [1-[(4-Butylphenyl)methyl]-1-(6-chlorohexyl)-3-(2,4,5-trimethylphenyl)urea] | – | 15% | 40% | 90% | – |
| CCCCc1ccc(CN(CCCCCCCl)C(=O)Nc2c(Cl)cc(Cl)cc2Cl)cc1 [1-[(4-Butylphenyl)methyl]-1-(6-chlorohexyl)-3-(2,4,6-trichlorophenyl)urea] | – | 19% | 34% | 90% | – |
| CCCCc1ccc(CN(CCCCCCCl)C(=O)Nc2ccc(Cl)cc2C)cc1 [1-[(4-Butylphenyl)methyl]-1-(6-chlorohexyl)-3-(4-chloro-2-methylphenyl)urea] | – | 35% | 46% | 90% | – |
| CCCCc1ccc(CN(CCCCCCC#N)C(=O)Nc2cc(C)c(C)cc2C)cc1 [1-[(4-Butylphenyl)methyl]-1-(6-cyanohexyl)-3-(2,4,5-trimethylphenyl)urea] | – | 28% | 48% | 90% | – |
| CCCCc1ccc(CN(CCCCCCC#N)C(=O)Nc2c(Cl)cc(Cl)cc2Cl)cc1 [1-[(4-Butylphenyl)methyl]-1-(6-cyanohexyl)-3-(2,4,6-trichlorophenyl)urea] | – | 35% | 31% | 90% | – |
| CCCCc1ccc(CN(CCCCCCO)C(=O)Nc2cc(C)c(C)cc2C)cc1 [1-[(4-Butylphenyl)methyl]-1-(6-hydroxyhexyl)-3-(2,4,5-trimethylphenyl)urea] | – | 39% | 57% | 90% | – |
| CCCCc1ccc(CN(CCCCCCO)C(=O)Nc2c(Cl)cc(Cl)cc2Cl)cc1 [1-[(4-Butylphenyl)methyl]-1-(6-hydroxyhexyl)-3-(2,4,6-trichlorophenyl)urea] | – | 32% | 35% | 90% | – |
| CCCCCCCN(Cc1ccc(CCCC)cc1)C(=O)Nc1ccc(F)cc1F [1-[(4-Butylphenyl)methyl]-1-(n-heptyl)-3-[2,4-difluorophenyl]urea] | – | 19% | 35% | 90% | – |
| CCCCc1ccc(CN(CCOCCO)C(=O)Nc2cc(C)c(C)cc2C)cc1 [1-[(4-Butylphenyl)methyl]-1-[2-(2-hydroxyethoxy)ethyl]-3-(2,4,5-trimethylphenyl)urea] | 85.9% | 76% | 100% | – | – |
| CCCCc1ccc(CN(CCCCC[Si](C)(C)C)C(=O)Nc2ccc(F)cc2F)cc1 [1-[(4-Butylphenyl)methyl]-3-(2,4-difluorophenyl)-1-[5-(trimethylsilyl)pentyl]urea] | – | 57% | 62% | 90% | – |
| CCCCc1ccc(CN(CCCCCCC#N)C(=O)Nc2ccc(Cl)cc2C)cc1 [1-[(4-Butylphenyl)methyl]-3-(4-chloro-2-methylphenyl)-1-(6-cyanohexyl)urea] | – | 50% | 48% | 90% | – |

Source: patent US4623662A, “Antiatherosclerotic ureas and thioureas” (American Cyanamid Company, priority 1985, dated 1986)
